{"source": "patent US8937167B2", "about": "(Washington University, priority 2009, dated 2015)", "system": "UTI89", "test": "Ex vivo gentamicin protection assay of infected mouse bladders (luminal vs intracellular bacteria)", "assay_type": "in vivo, E. coli (UPEC); host mouse", "details": "IP 5 mg/kg pretreatment; 6 hpi", "from_the_text": "Based on the extensive elucidation of the UPEC pathogenic cascade, critical nodes in pathogenesis that mannosides would target and thereby have powerful and potent therapeutic ramifications were identified. The first step in the UPEC pathway involves FimH-mediated colonization of the bladder epithelium via the recognition of mannose receptors. Bacterial invasion into superficial bladder umbrella cells can then ensue. […] To test this, a well-established gentamicin protection assay that allows the determination of the luminally bound fraction versus the intracellular fraction was utilized (FIG. 10). […] This may be due to contamination from bacteria in the urine or bacteria that are non-specifically associated with the epithelium. In any case, blocking invasion blocks the ability of the bacteria to rapidly expand in numbers. This is due to the ability of the mannosides to block the IBC mechanism.\nGentamicin protection assay. To enumerate bacteria present in the intracellular versus extracellular compartments, bladders were aseptically harvested at 6 hpi. The bladders were then bisected twice and washed three times in 500 μl of PBS each. The wash fractions were pooled, lightly spun at 500 rpm for 5 min to pellet exfoliated bladder cells, serially diluted, and plated onto LB agar to obtain the luminal fraction. The bladders were treated with 100 μg of gentamicin/ml for 90 min at 37° C. After treatment, the bladders were washed twice with PBS to eliminate residual gentamicin, homogenized in 1 ml of PBS, serially diluted, and plated onto LB agar to enumberate the CFUs in the intracellular fraction.\nTo enumerate bacteria present in the intracellular versus extracellular compartments, bladders were aseptically harvested at 6 hpi. The bladders were then bisected twice and washed three times in 500 μl of PBS each. The wash fractions were pooled, lightly spun at 500 rpm for 5 min to pellet exfoliated bladder cells, serially diluted, and plated onto LB agar to obtain the luminal fraction. The bladders were treated with 100 μg of gentamicin/ml for 90 min at 37° C. […]", "note": "Entries after “also recorded” stand apart in the source; their conditions may differ."}
{"smiles": "CNC(=O)c1cc(C(=O)NC)cc(-c2ccc(O[C@H]3O[C@H](CO)[C@@H](O)[C@H](O)[C@@H]3O)cc2)c1", "note": "[ZFH-2056]", "values": [{"measurement": "intracellular bacteria (CFUs after gentamicin treatment)", "value": "eliminated all CFUs; also recorded: significantly reduced"}, {"measurement": "luminal bacteria", "value": "significantly reduced"}]}
